{
  "source": "patent US20220370471A1",
  "about": "“COMPOSITION AND METHOD FOR TREATMENT OF HIPPOCAMPAL SYNAPSE DYSFUNCTION AND COGNITIVE DEFICITS IN ALZHEIMER'S DISEASE” (BOARD OF REGENTS, THE UNIVERSITY OF TEXAS SYSTEM, priority 2019, published 2022)",
  "key": {"[1]": {"tested_on": "5×FAD mice", "assay": "Neurogenesis (DCX staining) in the dentate gyrus", "format": "in vivo, mouse", "conditions": "MK0677 1.5 mg/kg, daily i.p., one month", "procedure": "Immunocytochemistry. […] NIS element software was used for image analysis. “Objective Count” dialog was used for intensity measurement. […] The overlapped dots represent synapses.\nNeurogenesis analysis. Neurogenesis in the hippocampal dentate gyms (DG) area was presented by performing doublecortin (DCX) staining in fixed brain slices as previously described. DCX-positive (DCX^+) cell number was counted manually. The DG area was measured using NIS element software. DCX cell density was calculated by dividing the DCX cell number by the DG area to evaluate neurogenesis."}, "[2]": {"tested_on": "5×FAD mice", "assay": "Survival of mice under daily MK0677 i.p. injection", "format": "in vivo, mouse", "conditions": "30 days", "procedure": "To determine whether MK0677 mitigates hippocampal lesions in 5×FAD mice, the inventor first sought to determine the optimal dose of MK0677. 5×FAD mice at 3 months old received either saline or MK0677 at 1.5 or 3 mg/kg via daily i.p. injection for 30 days (FIGS. 12a). 5×FAD mice at 3 months old have little to no hippocampal lesions and indiscernible behavioral change, both of which become prominent at 4 months of age (the endpoint of treatment). The doses of MK0677 were chosen based on previous studies. […] The inventor therefore selected 5×FAD mice that received the 1.5 mg/kg dose of MK0677 for biological response assays. Next, he examined the impact of MK0677 treatment on hippocampal Aβ deposition in 5×FAD mice. To this end, immunofluorescent staining using the specific antibody against Aβ was performed to visualize Aβ plaques.\nMice and agonist treatment."}, "[3]": {"target": "Ghsr1α (Homo sapiens, UniProt Q92847)", "sequence (Q92847 whole entry)": "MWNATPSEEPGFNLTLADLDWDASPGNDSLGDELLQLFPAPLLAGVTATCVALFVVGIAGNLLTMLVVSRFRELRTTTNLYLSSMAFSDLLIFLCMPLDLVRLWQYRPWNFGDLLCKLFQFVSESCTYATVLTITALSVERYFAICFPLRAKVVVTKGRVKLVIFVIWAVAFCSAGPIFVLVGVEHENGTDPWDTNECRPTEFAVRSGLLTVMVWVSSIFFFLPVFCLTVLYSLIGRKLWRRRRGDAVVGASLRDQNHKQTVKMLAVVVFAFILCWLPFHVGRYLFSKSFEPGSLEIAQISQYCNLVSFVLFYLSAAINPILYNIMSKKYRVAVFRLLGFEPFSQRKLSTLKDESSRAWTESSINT", "conditions": "cited from earlier work"}, "[4]": {"tested_on": "patients with AD", "conditions": "clinical trial; cited from earlier work"}, "[5]": {"tested_on": "hippocampal CA3-CA1 pathway", "assay": "Long-term potentiation (fEPSP) in hippocampal slices", "conditions": "MK0677 1.5 μM, SKF81297 2 μM, alone or in combination", "method": "For electrophysiological experiments, mice were anesthetized with isoflurane and decapitated. […] Slices were allowed to rest for 30 minutes after being transferred to the recording chamber before recordings began. Recordings of local field potentials (LFPs) were performed on an Axon Multiclamp 700B amplifier (Molecular Devices), and data were acquired and analyzed using AxoGraph X (AxoGraph Scientific). A tungsten concentric bipolar microelectrode (World Precision Instruments), and a recording glass electrode (1.5 MS2) filled with recording ACSF, were placed approximately 200 μm apart in the Schaffer collateral-commissural pathway in the CA1 region of the hippocampus. Pulses were delivered in 30 seconds intervals. Before baseline recordings commenced, input-output curves were taken, using 25-150 μA stimulation currents in 25 μA steps. Three sweeps were sampled at each stimulation intensity and averaged to represent the voltage response at each step. Recordings of baseline responses lasted for at least 40 minutes. Stimulation intensity was set to approximately 40% of the minimum intensity required to evoke the maximum response (based on the input-output curve). The stimulation intensity was kept consistent throughout the duration of the experiment. […] LTP was induced using a theta burst stimulation (TBS) protocol consisting of 10 bursts (5 pulses at 100 Hz) repeated at 5 Hz delivered two times 30 seconds apart. After LTP induction, LFPs were recorded for an additional 60 minutes. The slope of the field excitatory postsynaptic potential (fEPSP) was measured in Axograph scientific software and sweeps were averaged in bins of 5 for both the baseline and post LTP induction periods. Changes in LFPs are expressed as percentage change from the averaged baseline values."}},
  "data": [
    {"smiles": "CC(C)(N)C(=O)N[C@H](COCc1ccccc1)C(=O)N1CCC2(CC1)CN(S(C)(=O)=O)c1ccccc12", "note": "[MK0677]", "values": [
      {"measurement": "DCX+ cells, non-TG saline vs non-TG MK0677", "setting": "[1]", "value": "no significant difference"},
      {"measurement": "DCX-positive cells in dentate gyri, 5×FAD mice", "setting": "[1]", "value": "remarkably augmented number of DCX-positive cells"},
      {"measurement": "DCX-positive cells, Ghsr null mice", "setting": "[1]", "value": "no response"},
      {"measurement": "5×FAD mouse survival vs saline", "setting": "[2]; MK0677 1.5 mg/kg", "value": "little effect"},
      {"measurement": "mortality of 5×FAD mice", "setting": "[2]; MK0677 3 mg/kg", "value": "significantly increased the mortality"},
      {"measurement": "potency relative to ghrelin", "setting": "[3]", "value": "higher potency than ghrelin"},
      {"measurement": "clinical benefits in patients with AD", "setting": "[4]", "value": "failed to show clinical benefits"},
      {"measurement": "stimulus-evoked hippocampal LTP in 5×FAD slices", "setting": "[5]; slices from 4 month-old 5×FAD mice", "value": "no effect"},
      {"measurement": "hippocampal LTP in non-Tg slices", "setting": "[5]; slices from 4 month-old non-Tg mice", "value": "no effect"}
    ]}
  ]
}
